This is an account of results in patent publication US7538112B2, “HIV integrase inhibitors” (Merck & Co., Inc., priority 2004, dated 2009).

Molecules are shown by their SMILES.

In the experiment the test system is viruses containing mutations in the integrase gene (T66I/S153Y, N155S, and F121Y). The experiment can be described thus: Sensitivity of viruses containing integrase mutations associated with resistance to other integrase inhibitors. The experiment is classed as cell-based, HIV. The source says: In preclinical laboratory experiments, it has been possible to select viruses resistant to integrase inhibitors in structural classes other than those embraced by the present invention, such as diketo acids, naphthyridine carboxamides, and dihydropyrimidine carboxamides. Mutations in the integrase gene that confer resistance (defined herein as greater than or equal to a 10-fold loss of sensitivity) to such compounds include T66I/S153Y, N155S, and F121Y. Certain compounds of the present invention have less than a 10-fold loss in sensitivity against viruses containing these and other mutations associated with resistance to other integrase inhibitors, and thus can be effective inhibitors of such viruses. Compounds of the present invention which are effective against such viruses include, for example, the compounds of Examples 37, 50, 56, 62, 69, 86, 87, 88, 151, 153, 159-A, 159-B, 166, 189, 193, and 205.
As for `CCNC(=O)c1nn(Cc2ccc(F)c(Cl)c2)c(=O)c2c(O)c3n(c12)CCN(C)C3=O` [Example 69, 2-(3-Chloro-4-fluorobenzyl)-N-ethyl-10-hydroxy-8-methyl-1,9-dioxo-1,2,6,7,8,9-hexahydropyrazino[1′,2′:1,5]pyrrolo[2,3-d]pyridazine-4-carboxamide], the “effective against viruses with integrase resistance mutations” value (“effective against viruses” for short) is on record as “effective”. For `CCN1CC(CO)n2c(c(O)c3c(=O)n(Cc4ccc(F)cc4)nc(C)c32)C1=O` (racemic) [Example 56, 8-Ethyl-2-(4-fluorobenzyl)-10-hydroxy-4-methyl-6-(hydroxymethyl)-7,8-dihydropyrazino[1′,2′:1,5]pyrrolo[2,3-d]pyridazine-1,9(2H,6H)-dione] the value was “effective”. In the case of `Cc1nn(Cc2ccc(F)cc2)c(=O)c2c(O)c3n(c12)[C@@H](C)CN(C(C)C)C3=O` [Example 50, 6(S)-2-(4-Fluorobenzyl)-10-hydroxy-8-isopropyl-4,6-dimethyl-7,8-dihydropyrazino[1′,2′:1,5]pyrrolo[2,3-d]pyridazine-1,9(2H,6H)-dione] it was “effective”. For `CC(C)N1C[C@H](C)n2c(c(O)c3c(=O)n(Cc4ccc(F)c(Cl)c4)nc(N(C)S(C)(=O)=O)c32)C1=O` [Example 153, N-[(6S)-2-(3-Chloro-4-fluorobenzyl)-10-hydroxy-8-isopropyl-6-methyl-1,9-dioxo-1,2,6,7,8,9-hexahydropyrazino[1′,2′:1,5]pyrrolo[2,3-d]pyridazin-4-yl]-N-methylmethanesulfonamide] the value was “effective”. For the molecule `CCN1CC(C)n2c(c(O)c3c(=O)n(Cc4ccc(F)c(Cl)c4)nc(N(CC)S(C)(=O)=O)c32)C1=O` (racemic) [Example 159-B, N-[2-(3-Chloro-4-fluorobenzyl)-10-hydroxy-8-ethyl-6-methyl-1,9-dioxo-1,2,6,7,8,9-hexahydropyrazino[1′,2′:1,5]pyrrolo[2,3-d]pyridazin-4-yl]-N-ethylmethanesulfonamide], the “effective against viruses” value was “effective”.

With `CCN1C[C@H](C)n2c(c(O)c3c(=O)n(Cc4ccc(F)c(Cl)c4)nc(C(=O)NC)c32)C1=O` [Example 62, 6(S)-2-(3-Chloro-4-fluorobenzyl)-8-ethyl-10-hydroxy-N,6-dimethyl-1,9-dioxo-1,2,6,7,8,9-hexahydropyrazino[1′,2′:1,5]pyrrolo[2,3-d]pyridazine-4-carboxamide], the “effective against viruses” value was “effective”. Consider `CC(C)N1C[C@H](C)n2c(c(O)c3c(=O)n(Cc4ccc(F)cc4)nc(N(C)S(C)(=O)=O)c32)C1=O` [Example 159-A, N-[(6S)-2-(4-Fluorobenzyl)-10-hydroxy-8-isopropyl-6-methyl-1,9-dioxo-1,2,6,7,8,9-hexahydropyrazino[1′,2′:1,5]pyrrolo[2,3-d]pyridazin-4-yl]-N-methylmethanesulfonamide], for which the “effective against viruses” value is given as “effective”. `CCN1CC(CO)n2c(c(O)c3c(=O)n(Cc4ccc(F)cc4)ncc32)C1=O` (stereo not shown) [Example 205, 2-(4-Fluorobenzyl)-10-hydroxy-8-ethyl-6-hydroxymethyl-7,8-dihydropyrazino[1′,2′:1,5]pyrrolo[2,3-d]pyridazine-1,9(2H,6H)-dione]: the “effective against viruses” value is “effective”. For `CCNC(=O)c1nn(Cc2ccc(F)cc2)c(=O)c2c(O)c3n(c12)[C@@H](C)CN(C(C)C)C3=O` [Example 87, 6(S)-2-(4-Fluorobenzyl)-10-hydroxy-8-isopropyl-N-ethyl-6-methyl-1,9-dioxo-1,2,6,7,8,9-hexahydropyrazino[1′,2′:1,5]pyrrolo[2,3-d]pyridazine-4-carboxamide] the value was “effective”. For `CC(C)N1C[C@H](C)n2c(c(O)c3c(=O)n(Cc4ccc(F)c(Cl)c4)nc(C(=O)N(C)C)c32)C1=O` [Example 88, 6(S)-2-(3-Chloro-4-fluorobenzyl)-10-hydroxy-8-isopropyl-N,N,6-trimethyl-1,9-dioxo-1,2,6,7,8,9-hexahydropyrazino[1′,2′:1,5]pyrrolo[2,3-d]pyridazine-4-carboxamide] the value was “effective”; for `CCN1C[C@H](C)n2c(c(O)c3c(=O)n(Cc4ccc(F)c(Cl)c4)nc(S(=O)(=O)CC)c32)C1=O` [Example 166, 6(S)-2-(3-Chloro-4-fluorobenzyl)-8-ethyl-10-hydroxy-4-(ethylsulfonyl)-6-methyl-7,8-dihydropyrazino[1′,2′:1,5]pyrrolo[2,3-d]pyridazine-1,9(2H,6H)-dione], “effective”; for `CC(C)N1C[C@H](C)n2c(c(O)c3c(=O)n(Cc4ccc(F)cc4)ncc32)C1=O` [Example 193, 6(S)-2-(4-Fluorobenzyl)-10-hydroxy-8-isopropyl-6-methyl-7,8-dihydropyrazino[1′,2′:1,5]pyrrolo[2,3-d]pyridazine-1,9(2H,6H)-dione], “effective”. In the case of `CCNC(=O)c1nn(Cc2ccc(F)c(Cl)c2)c(=O)c2c(O)c3n(c12)[C@@H](C)CN(C(C)C)C3=O` [Example 86, 6(S)-2-(3-Chloro-4-fluorobenzyl)-10-hydroxy-8-isopropyl-N-ethyl-6-methyl-1,9-dioxo-1,2,6,7,8,9-hexahydropyrazino[1′,2′:1,5]pyrrolo[2,3-d]pyridazine-4-carboxamide] it was “effective”. `CCN1C[C@H](C)n2c(c(O)c3c(=O)n(Cc4ccc(F)c(Cl)c4)nc(N(C)S(C)(=O)=O)c32)C1=O` [Example 151, N-[(6S)-2-(3-Chloro-4-fluorobenzyl)-10-hydroxy-8-ethyl-6-methyl-1,9-dioxo-1,2,6,7,8,9-hexahydropyrazino[1′,2′:1,5]pyrrolo[2,3-d]pyridazin-4-yl]-N-methylmethanesulfonamide]: the “effective against viruses” value was “effective”. With `CCN1C[C@H](C)n2c(c(O)c3c(=O)n(Cc4ccc(F)c(Cl)c4)ncc32)C1=O` [Example 189, 6(S)-2-(3-Chloro-4-fluorobenzyl)-10-hydroxy-8-ethyl-6-methyl-7,8-dihydropyrazino[1′,2′:1,5]pyrrolo[2,3-d]pyridazine-1,9(2H,6H)-dione], the “effective against viruses” value is listed as “effective”. In the case of `Cc1nn(Cc2ccc(F)cc2)c(=O)c2c(O)c3n(c12)C(C)CN(C)C3=O` (stereo not shown) [Example 37, 2-(4-Fluorobenzyl)-10-hydroxy-4,6,8-trimethyl-7,8-dihydropyrazino[1′,2′:1,5]-pyrrolo[2,3-d]pyridazine-1,9(2H,6H)-dione] it was “effective”.
